Laboratory results as given in paper PMC8287907 (Nucleic Acids Research, 2021).
“Also recorded” adds a separate entry of the source.

Biological target: SUD-NM / TRF2 G4 interaction (Severe acute respiratory syndrome coronavirus 2, UniProt P0DTD1)
Assay type: binding, SARS-CoV-2
Conditions: His-SUD-NM 10 nM, biotinylated TRF2 G4 50 nM, TMP 100 to 500 nM

## Cc1cc2cc3c(C)cc(=O)oc3c(C)c2o1 [TMP, trimethyl psoralen]
  Inhibition of the SUD/G4 interaction (in words): No inhibition; also recorded: does not inhibit
